Reference: ChEMBL document CHEMBL1142966, “Enhanced antileukemic activity of the novel complex 2,5-dihydroxybenzoate molybdenum(VI) against 2,5-dihydroxybenzoate, polyoxometalate of Mo(VI), and tetraphenylphosphonium in the human HL-60 and K562 leukemic cell lines” (J Med Chem, 2007)

Legend:
Type in all cases: cell-based
K562 [1] = experiment: Cytotoxicity against human K562 cells at 10000 ug/mL by trypan blue assay after 72 hrs; details: k562, 72 h
K562 [2] = experiment: Cytotoxicity against human K562 cells at 10000 ug/mL by trypan blue assay after 48 hrs; details: k562, 48 h
HL-60 [3] = experiment: Cytotoxicity against human HL60 cells at 10 ug/mL by trypan blue assay after 72 hrs; details: hl-60, 72 h
HL-60 [4] = experiment: Cytotoxicity against human HL60 cells at 1000 ug/mL by trypan blue assay after 72 hrs; details: hl-60, 72 h
K562 [5] = experiment: Cytotoxicity against human K562 cells at 10 ug/mL by trypan blue assay after 24 hrs; details: k562, 24 h
K562 [6] = experiment: Cytotoxicity against human K562 cells at 100 ug/mL by trypan blue assay after 72 hrs; details: k562, 72 h
HL-60 [7] = experiment: Cytotoxicity against human HL60 cells at 1000 ug/mL by trypan blue assay after 24 hrs; details: hl-60, 24 h
HL-60 [8] = experiment: Cytotoxicity against human HL60 cells at 10000 ug/mL by trypan blue assay after 72 hrs; details: hl-60, 72 h
HL-60 [9] = experiment: Cytotoxicity against human HL60 cells at 100 ug/mL by trypan blue assay after 48 hrs; details: hl-60, 48 h
K562 [10] = experiment: Cytotoxicity against human K562 cells at 10 ug/mL by trypan blue assay after 48 hrs; details: k562, 48 h
HL-60 [11] = experiment: Cytotoxicity against human HL60 cells at 10 ug/mL by trypan blue assay after 24 hrs; details: hl-60, 24 h
HL-60 [12] = experiment: Cytotoxicity against human HL60 cells at 100 ug/mL by trypan blue assay after 24 hrs; details: hl-60, 24 h
K562 [13] = experiment: Cytotoxicity against human K562 cells at 10 ug/mL by trypan blue assay after 72 hrs; details: k562, 72 h
HL-60 [14] = experiment: Cytotoxicity against human HL60 cells at 1000 ug/mL by trypan blue assay after 48 hrs; details: hl-60, 48 h
HL-60 [15] = experiment: Cytotoxicity against human HL60 cells at 10 ug/mL by trypan blue assay after 48 hrs; details: hl-60, 48 h
HL-60 [16] = experiment: Cytotoxicity against human HL60 cells at 10000 ug/mL by trypan blue assay after 24 hrs; details: hl-60, 24 h
K562 [17] = experiment: Cytotoxicity against human K562 cells at 1000 ug/mL by trypan blue assay after 48 hrs; details: k562, 48 h
K562 [18] = experiment: Cytotoxicity against human K562 cells at 100 ug/mL by trypan blue assay after 48 hrs; details: k562, 48 h
HL-60 [19] = experiment: Cytotoxicity against human HL60 cells at 100 ug/mL by trypan blue assay after 72 hrs; details: hl-60, 72 h
HL-60 [20] = experiment: Cytotoxicity against human HL60 cells at 10000 ug/mL by trypan blue assay after 48 hrs; details: hl-60, 48 h
K562 [21] = experiment: Cytotoxicity against human K562 cells at 1000 ug/mL by trypan blue assay after 72 hrs; details: k562, 72 h
K562 [22] = experiment: Cytotoxicity against human K562 cells at 100 ug/mL by trypan blue assay after 24 hrs; details: k562, 24 h
K562 [23] = experiment: Cytotoxicity against human K562 cells at 1000 ug/mL by trypan blue assay after 24 hrs; details: k562, 24 h
K562 [24] = experiment: Cytotoxicity against human K562 cells at 10000 ug/mL by trypan blue assay after 24 hrs; details: k562, 24 h

[Cl-].c1ccc([P+](c2ccccc2)(c2ccccc2)c2ccccc2)cc1 [TETRAPHENYLPHOSPHONIUM CHLORIDE]
Activity (K562 [1]): 100%
Activity (K562 [2]): 100%
Activity (HL-60 [3]): 100%
Activity (HL-60 [4]): 100%
Activity (K562 [5]): 56.8%
Activity (K562 [6]): 100%
Activity (HL-60 [7]): 100%
Activity (HL-60 [8]): 100%
Activity (HL-60 [9]): 100%
Activity (K562 [10]): 100%
Activity (HL-60 [11]): 1%
Activity (HL-60 [12]): 4.5%
Activity (K562 [13]): 100%
Activity (HL-60 [14]): 100%
Activity (HL-60 [15]): 100%
Activity (HL-60 [16]): 100%
Activity (K562 [17]): 100%
Activity (K562 [18]): 100%
Activity (HL-60 [19]): 100%
Activity (HL-60 [20]): 100%
Activity (K562 [21]): 100%
Activity (K562 [22]): 41.8%
Activity (K562 [23]): 100%
Activity (K562 [24]): 100%
